Experimental data published in patent US20080200568A1, “Genes Associated With Type ll Diabetes Mellitus” (priority 2005, published 2008).

Columns and labels:
Type in all cases: in vivo
[1] = system: male C57BL/6J mice fed a high fat Western Diet, with or without streptozotocin; assay: Acute Glucose Lowering Study (tail-vein blood glucose over 5 hours after a single dose); details: for average change in blood glucose measurement: 100 mg/kg, N=10
From the text: The studies reported below dosed male C57BL/6J mice with an EP3 antagonist, GW671021B, and monitored the effects on glucose homeostasis by measuring tail-vein blood glucose. The animals were either (a) fed a high fat diet to induce mild insulin resistance, or (b) were fed the high fat diet and also treated with a low dose of streptozotocin (which damages the pancreatic beta-cells) resulting in both insulin resistance and insulin deficiency (as in T2DM patients).
Materials and Methods: Male 6 week old C57BL/6J mice (Jackson Laboratory, Bar Harbor Me.) were made mildly insulin resistant by feeding a high fat Western Diet (WD) (Research Diets, D12079B) for 3 weeks. Test mice were then made insulin deficient by intraperitoneal injection (IP) with 100 mg/kg Streptozotocin (STZ or streptozocin; Zanosar®, Sicor Pharmaceuticals, Irvine, Calif.) reconstituted in citric acid. Control mice (also on the WD) were injected with the same volume and concentration of citric acid without the STZ. Two weeks after the STZ (or control citric acid) injections the mice received injections of either GW021 in vehicle, or vehicle alone (as described below). Student's t-test or Tukey's HSD (Honestly Significant Different) test was used to determine the significance of the results.
Acute Glucose Lowering Study: At 6:30 am mice were transferred to clean cages with water in the procedure room and allowed to acclimate for 1 hour. After acclimation, a small snip was made at the tip of the tail for blood collection and baseline glucose measurements were collected using the Bayer Elite XL glucometer. Mice were dosed with either compound GW671021B (100 mg/kg body weight) in a suspension in 0.5% HPMC, 0.1% Tween 80; or dosed with Vehicle only (HPMC, 0.1% Tween 80). Whole blood for glucose measurement was collected at 0.5, 1, 2, 3, 4, and 5 hours after dosing. […] There were 10 mice in each treatment group.
Data represent an average blood glucose measurement (mg/dL) of the 10 mice in each treatment group at each time point.

[2] = system: C57BL/6J mice fed a high fat diet (Western Diet) and treated with streptozocin; assay: 14 Day Chronic Study (glucose after 1st, 15th and 27th dose); details: 0, 7 and 13 days of treatment, twice daily dosing, compared to STZ treated mice without compound
Experimental: A 14 day chronic study in C57BL/6J mice was performed. The animals were fed a high fat diet (Western Diet) and treated with a low dose of streptozocin (which damages the pancreatic beta-cells) resulting in both insulin resistance and insulin deficiency (as in T2DM patients). Mice were prepared as generally described above in Example 2. Two weeks after injection of streptozocin, a twice daily dosing schedule was started with: • 1. GW67021B (10 mg/kg, 30 mg/kg, or 100 mg/kg); or • 2. CB-1 (Rimonabant, antagonist of the CB-1 receptor; commonly used as a positive control for weight-loss inducing drugs) at 5 mg/kg; or • 3. GW34784 (PPAR gamma agonist compound as another positive control) at 3 mg/kg (also referred to as GW845 or GW7845))
All compounds were dosed in suspension in 0.5% HPMC; 0.1% Tween 80 by body weight. The same general procedures used in the acute study (Example 2) were utilized in this chronic study. Glucose was measured following the 1st, 15th and 27th dose (day 0, 7, and 13) at 0, 1, 2, 3, 4, and 5 hour time points. Results are graphed in FIGS. 3a-3c for the groups of mice receiving WD+Streptozocin+Vehicle (no compound); WD+Streptozocin+GW021 10 mg/kg; WD+Streptozocin+GW021 30 mg/kg; WD+Streptozocin+GW021 100 mg/kg; WD+Streptozocin+GW845 3 mg/kg; WD+Streptozocin+CB-1 5 mg/kg.

[3] = system: streptozocin-treated mice fed a high-fat Western Diet; assay: Final Glucose Measurement on the 14th day (after 28th dose); details: compared to mice not treated with compound (FIG. 4)
Experimental: Groups of mice were maintained on diet and dosing schedules as described, and on the 14th day were moved to the procedure room, dosed with a final 28th dose (of compound or vehicle only, according to their group as shown in FIG. 4), then acclimated for about 1 hour with access to food and water before bleeding to measure blood glucose.
In FIG. 4 the first […] bars (from left to right) represent mice that were treated with STZ and vehicle only; STZ and GW021B 10 mg/kg; STZ and GW021 B 30 mg/kg; STZ and GW021 B 100 mg/kg; STZ and GW845 3 mg/kg. The seventh bar represents mice that were not treated with STZ (citric acid control) and were not treated with any compound (Vehicle only). “Vehicle” mice were dosed with HPMC/Tween only (no GW021, CB-1 or GW 845). Each bar represents an average of a single blood draw taken on day 14 from each of the ten mice in a group.

SMILES: COc1ccc(Br)cc1S(=O)(=O)[N-]C(=O)/C=C/c1ccccc1Cc1ccc2ccccc2c1.[Na+] [GW021B]
- average change in blood glucose measurement ([1]; WD + STZ mice, 0 hrs (baseline)): 0 mg/dL
- average change in blood glucose measurement ([1]; WD + STZ mice, 0.5 hrs after dosing): -16 mg/dL
- average change in blood glucose measurement ([1]; WD + STZ mice, 1 hr after dosing): -46 mg/dL
- average change in blood glucose measurement ([1]; WD + STZ mice, 2 hrs after dosing): -59 mg/dL
- average change in blood glucose measurement ([1]; WD + STZ mice, 3 hrs after dosing): -66 mg/dL
- average change in blood glucose measurement ([1]; WD + STZ mice, 4 hrs after dosing): -83 mg/dL
- average change in blood glucose measurement ([1]; WD + STZ mice, 5 hrs after dosing): -79 mg/dL
- average change in blood glucose measurement ([1]; WD + citric acid mice (no STZ), 0 hrs (baseline)): 0 mg/dL
- average change in blood glucose measurement ([1]; WD + citric acid mice (no STZ), 0.5 hrs after dosing): -14 mg/dL
- average change in blood glucose measurement ([1]; WD + citric acid mice (no STZ), 1 hr after dosing): -14 mg/dL
- average change in blood glucose measurement ([1]; WD + citric acid mice (no STZ), 2 hrs after dosing): -9 mg/dL
- average change in blood glucose measurement ([1]; WD + citric acid mice (no STZ), 3 hrs after dosing): -18 mg/dL
- average change in blood glucose measurement ([1]; WD + citric acid mice (no STZ), 4 hrs after dosing): -37 mg/dL
- average change in blood glucose measurement ([1]; WD + citric acid mice (no STZ), 5 hrs after dosing): -37 mg/dL
- effect on blood glucose (change compared to baseline), in words ([1]; streptozocin-treated C57BL/6J mice fed high-fat Western Diet, 5 hour time course): blood glucose lowering effect
- effect on glucose (change compared to baseline), in words [2]: continued to have glucose lowering effects
- blood glucose level on the fourteenth day of treatment, in words [3]: lower blood glucose levels
